{
  "source": "patent US8247211B2",
  "about": "“Glycopeptide antibiotics” (American Cyanamid Company, priority 2001, dated 2012)",
  "key": {"[1]": {"tested_on": "Enterococcus sp.", "assay": "In vitro antibacterial evaluation: minimum inhibitory concentration (MIC), broth dilution method", "format": "cell-based", "conditions": "broth dilution, 5×10^5 CFU/mL, 18 hours at 35° C.", "method_in_brief": "(§1)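 NCCLS M7-A2 broth dilution; Muller-Hinton II […]; 5×10^5 CFU/mL; 64-0.06 μg/mL. MIC = lowest concentration with no growth.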"}, "[2]": {"tested_on": "Staphylococcus sp.", "assay": "In vitro antibacterial evaluation: minimum inhibitory concentration (MIC), broth dilution method", "format": "cell-based", "conditions": "for MIC Staphylococcus aureus (ATCC 29213): strain ATCC 29213; for MIC Staphylococcus aureus (GC 1131): strain GC 1131; for MIC Staphylococcus aureus (GC 3051): strain GC 3051; for MIC Staphylococcus aureus (GC 3053): strain GC 3053; for MIC Staphylococcus aureus (GC 4541): strain GC 4541; for MIC Staphylococcus aureus (GC 4542): strain GC 4542; for MIC Staphylococcus aureus-SMITH (GC 4543): strain GC 4543; for MIC Staphylococcus aureus (GC 4544): strain GC 4544; for MIC Staphylococcus aureus (GC 4545): strain GC 4545; for MIC Staphylococcus haemolyticus (GC 4546): strain GC 4546; for MIC Coagulase Negative Staphylococcus (GC 4547): strain GC 4547; for MIC Coagulase Negative Staphylococcus (GC 4548): strain GC 4548; for MIC Coagulase Negative Staphylococcus (GC 4549): strain GC 4549; for MIC Coagulase Negative Staphylococcus (GC 4551): strain GC 4551; for MIC Coagulase Negative Staphylococcus (GC 6257): strain GC 6257", "method_in_brief": "as §1"}, "[3]": {"tested_on": "Escherichia coli", "assay": "In vitro antibacterial evaluation: minimum inhibitory concentration (MIC), broth dilution method", "format": "cell-based", "conditions": "5×10^5 CFU/mL, 18 hours at 35° C.", "method_in_brief": "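Inoculum: 5×10^5 CFU/mL. Range: 64-0.06 μg/mL. Medium: Muller-Hinton II […]; NCCLS M7-A2 broth dilution. Endpoint: lowest concentration inhibiting growth. Strains include methicillin-, penicillin- and/or vancomycin-resistant clinical isolates.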"}, "[4]": {"tested_on": "Streptococcus sp.", "assay": "In vitro antibacterial evaluation: minimum inhibitory concentration (MIC), broth dilution method", "format": "cell-based", "conditions": "broth dilution, 5×10^5 CFU/mL, 18 hours at 35° C.", "method_in_brief": "as §1"}, "[5]": {"tested_on": "Staphylococcus aureus-SMITH (GC 4543)", "assay": "Acute lethal infection in mice (ED50)", "format": "in vivo", "conditions": "female CD-1 mice, intraperitoneal challenge, intravenous dose 30 min. after infection, 7 day survival ratios", "method_in_brief": "(§2)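 IP bacterial challenge, female CD-1 mice; inoculum lethal to untreated controls in 24-48 hr. IV dosing in saline or 5% dextrose 30 min post-infection, 5 mice/dose. ED50 from 7-day survival, 3 tests pooled.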"}, "[6]": {"tested_on": "Enterococcus faecalis (GC 6189), vancomycin resistant strain", "assay": "Acute lethal infection in mice (ED50)", "format": "in vivo", "conditions": "female CD-1 mice, intraperitoneal challenge, intravenous dose 30 min. after infection, 7 day survival ratios", "method_in_brief": "as §2"}, "[7]": {"conditions": "broth dilution, 18 hours at 35° C."}},
  "data": [
    {"smiles": "Cc1ccc(CC2OCC3OC(OC4C(CO)OC(Oc5ccc(CC6NC(=O)C(C(C)c7ccccc7)NC(=O)CNC(=O)C(CO)NC(=O)C(C(O)C7CNC(=N)N7C7OC(CO)C(O)C(O)C7O)NC(=O)C(C(O)C7CNC(=N)N7)NC6=O)cc5)C(O)C4O)C(O)C(O)C3O2)cc1", "note": "(stereo not drawn) [Example 119, Cyclo[glycyl-β-methylphenylalanyl-O-[4-O-[4,6-O-(4-methylphenethylidene)hexopyranosyl]-hexopyranosyl]tyrosyl-3-(2-iminoimidazolidin-4-yl)seryl-3-(3-hexopyranosyl-2-iminoimidazolidin-4-yl)serylseryl]]", "values": [
      {"measurement": "MIC Enterococccus avium (GC 4558)", "setting": "[1]", "value": 4, "unit": "µg/mL"},
      {"measurement": "MIC Enterococccus faecalis (ATCC 29212)", "setting": "[1]", "value": 2, "unit": "µg/mL"},
      {"measurement": "MIC Enterococccus faecalis (GC 2691)", "setting": "[1]", "value": 2, "unit": "µg/mL"},
      {"measurement": "MIC Enterococccus faecalis (GC 3059)", "setting": "[1]", "value": ">64", "unit": "µg/mL"},
      {"measurement": "MIC Enterococccus faecalis (GC 4552)", "setting": "[1]", "value": 2, "unit": "µg/mL"},
      {"measurement": "MIC Enterococccus faecalis (GC 4553)", "setting": "[1]", "value": 4, "unit": "µg/mL"},
      {"measurement": "MIC Enterococccus faecalis (GC 4554)", "setting": "[1]", "value": 2, "unit": "µg/mL"},
      {"measurement": "MIC Enterococccus faecalis (GC 6189)", "setting": "[1]", "value": 2, "unit": "µg/mL"},
      {"measurement": "MIC Enterococccus faecium (GC 2243)", "setting": "[1]", "value": 4, "unit": "µg/mL"},
      {"measurement": "MIC Enterococccus faecium (GC 4556)", "setting": "[1]", "value": 2, "unit": "µg/mL"},
      {"measurement": "MIC Enterococccus faecium (GC 4557)", "setting": "[1]", "value": 1, "unit": "µg/mL"},
      {"measurement": "MIC Enterococcus faecalis (GC 2242)", "setting": "[1]", "value": 2, "unit": "µg/mL"},
      {"measurement": "MIC Staphylococcus aureus (ATCC 29213)", "setting": "[2]", "value": 1, "unit": "µg/mL"},
      {"measurement": "MIC Staphylococcus aureus (ATCC 29213)", "setting": "[2]; [7]", "value": 1, "unit": "µg/mL"},
      {"measurement": "MIC Staphylococcus aureus (GC 1131)", "setting": "[2]", "value": 1, "unit": "µg/mL"},
      {"measurement": "MIC Staphylococcus aureus (GC 1131)", "setting": "[2]; [7]", "value": 1, "unit": "µg/mL"},
      {"measurement": "MIC Staphylococcus aureus (GC 3051)", "setting": "[2]", "value": 1, "unit": "µg/mL"},
      {"measurement": "MIC Staphylococcus aureus (GC 3051)", "setting": "[2]; [7]", "value": 1, "unit": "µg/mL"},
      {"measurement": "MIC Staphylococcus aureus (GC 3053)", "setting": "[2]", "value": 2, "unit": "µg/mL"},
      {"measurement": "MIC Staphylococcus aureus (GC 3053)", "setting": "[2]; [7]", "value": 2, "unit": "µg/mL"},
      {"measurement": "MIC Staphylococcus aureus (GC 4541)", "setting": "[2]", "value": 1, "unit": "µg/mL"},
      {"measurement": "MIC Staphylococcus aureus (GC 4541)", "setting": "[2]; [7]", "value": 1, "unit": "µg/mL"},
      {"measurement": "MIC Staphylococcus aureus (GC 4542)", "setting": "[2]", "value": 1, "unit": "µg/mL"},
      {"measurement": "MIC Staphylococcus aureus (GC 4542)", "setting": "[2]; [7]", "value": 1, "unit": "µg/mL"},
      {"measurement": "MIC Staphylococcus aureus-SMITH (GC 4543)", "setting": "[2]; 18 hours at 35° C.", "value": 1, "unit": "µg/mL"},
      {"measurement": "MIC Staphylococcus aureus-SMITH (GC 4543)", "setting": "[2]; [7]", "value": 1, "unit": "µg/mL"},
      {"measurement": "MIC Staphylococcus aureus (GC 4544)", "setting": "[2]", "value": 1, "unit": "µg/mL"},
      {"measurement": "MIC Staphylococcus aureus (GC 4544)", "setting": "[2]; [7]", "value": 1, "unit": "µg/mL"},
      {"measurement": "MIC Staphylococcus aureus (GC 4545)", "setting": "[2]", "value": 1, "unit": "µg/mL"},
      {"measurement": "MIC Staphylococcus aureus (GC 4545)", "setting": "[2]; [7]", "value": 1, "unit": "µg/mL"},
      {"measurement": "MIC Staphylococcus haemolyticus (GC 4546)", "setting": "[2]", "value": 1, "unit": "µg/mL"},
      {"measurement": "MIC Staphylococcus haemolyticus (GC 4546)", "setting": "[2]; [7]", "value": 1, "unit": "µg/mL"},
      {"measurement": "MIC Coagulase Negative Staphylococcus (GC 4547)", "setting": "[2]", "value": 1, "unit": "µg/mL"},
      {"measurement": "MIC Coagulase Negative Staphylococcus (GC 4547)", "setting": "[2]; [7]", "value": 1, "unit": "µg/mL"},
      {"measurement": "MIC Coagulase Negative Staphylococcus (GC 4548)", "setting": "[2]", "value": 1, "unit": "µg/mL"},
      {"measurement": "MIC Coagulase Negative Staphylococcus (GC 4548)", "setting": "[2]; [7]", "value": 1, "unit": "µg/mL"},
      {"measurement": "MIC Coagulase Negative Staphylococcus (GC 4549)", "setting": "[2]", "value": 1, "unit": "µg/mL"},
      {"measurement": "MIC Coagulase Negative Staphylococcus (GC 4549)", "setting": "[2]; [7]", "value": 1, "unit": "µg/mL"},
      {"measurement": "MIC Coagulase Negative Staphylococcus (GC 4551)", "setting": "[2]", "value": 1, "unit": "µg/mL"},
      {"measurement": "MIC Coagulase Negative Staphylococcus (GC 4551)", "setting": "[2]; [7]", "value": 1, "unit": "µg/mL"},
      {"measurement": "MIC Coagulase Negative Staphylococcus (GC 6257)", "setting": "[2]", "value": "<0.5", "unit": "µg/mL"},
      {"measurement": "MIC Coagulase Negative Staphylococcus (GC 6257)", "setting": "[2]; [7]", "value": "<0.5", "unit": "µg/mL"},
      {"measurement": "MIC Escherichia coli (ATCC 25922)", "setting": "[3]", "value": 32, "unit": "µg/mL"},
      {"measurement": "MIC Escherichia coli (GC 4559)", "setting": "[3]", "value": 32, "unit": "µg/mL"},
      {"measurement": "MIC Escherichia coli (GC 4560)", "setting": "[3]", "value": 1, "unit": "µg/mL"},
      {"measurement": "MIC Streptococcus agalactiae (GC 4564)", "setting": "[4]", "value": "<0.5", "unit": "µg/mL"},
      {"measurement": "MIC Streptococcus pneumoniae (GC 1894)", "setting": "[4]", "value": "<0.5", "unit": "µg/mL"},
      {"measurement": "MIC Streptococcus pneumoniae (GC 4565)", "setting": "[4]", "value": 1, "unit": "µg/mL"},
      {"measurement": "MIC Streptococcus pneumonine (ATCC 6301)", "setting": "[4]", "value": "<0.5", "unit": "µg/mL"},
      {"measurement": "MIC Streptococcus pyogenes (GC 4563)", "setting": "[4]", "value": "<0.5", "unit": "µg/mL"},
      {"measurement": "median effective dose (ED50), Staphylococcus aureus-SMITH (GC 4543)", "setting": "[5]", "value": 0.19, "unit": "mg/kg"},
      {"measurement": "median effective dose (ED50), Enterococcus faecalis (GC 6189)", "setting": "[6]", "value": 0.41, "unit": "mg/kg"}
    ]}
  ]
}
